Patent publication US8809341B2, “2,4-pyrimidinediamine compounds and uses as anti-proliferative agents” (Rigel Pharmaceuticals, Inc., priority 2003, dated 2014)
Read-outs that look alike come from different tables or passages of the source. One block for each molecule: values may come before it.

Columns and labels:
Assay type in all cases: cell-based
SKMEL5 = test: in vitro antiproliferation assay, SKMEL5
Protocol: (§1) The IC50 values of various compounds against a various different tumor cell lines were determined using standard in vitro antiproliferation assays. The tumor cell lines tested were as follows: A549 (lung); H1299 (lung), ACHN (kidney/p53 wt), CAKI (renal cell carcinoma), NCI-H460 (lung); HCT116 (colon/p53w0; HELA (cervix/p53 wt), HUH7 (liver/p53 wt), HUVEC (primary endothelial), LNCAP (prostate), HT-29 (colon); MCF-7 (breast); MCF-7 (breast/ER positive), MDA MB435S (breast); MDA MB231 (breast/ER negative), DU145 (prostate); BxPC-3 (pancreatic); SKOV-3 (ovarian); HepG2 (hepatic), NDHF primary normal human dermal fibroblast), SKMEL28 (breast/p53mut), SKMEL5 (breast/p53 wt), U20S (bone) and PC3 (prostate). […] A blank indicates the specified compound was not tested against the specified cell line.
(§2) Many of the compounds were tested against other cell lines. Their activity is reported in TABLE 15, below, where +”, “−”, “−/+” or “+/−” values are as described for TABLES 1-14. Where the cell line includes a value in a parenthetical, the value indicates the seeding density at which the assay was performed

H1299 cells = test: in vitro antiproliferation assay, H1299 (lung)
Method in brief: (§3)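 Standard in vitro antiproliferation assays on tumour cell lines, including A549 and H1299 (both lung); IC50 values determined.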

ACHN = test: in vitro antiproliferation assay, ACHN (kidney/p53 wt)
Protocol: as §1, §2

CAKI = test: in vitro antiproliferation assay, CAKI (renal cell carcinoma)
Protocol: as §1, §2

SKMEL28 = test: in vitro antiproliferation assay, SKMEL28 (breast/p53mut)
Protocol: as §1, §2

HUVEC = test: in vitro antiproliferation assay, HUVEC (primary endothelial)
Protocol: as §1, §2

HCT116 = test: in vitro antiproliferation assay, HCT116 (colon)
Protocol: as §1, §2

A549 cells = test: in vitro antiproliferation assay, A549 (lung)
Method in brief: as §3

PC3 = test: in vitro antiproliferation assay, PC3 (prostate)
Protocol: as §1, §2

HELA = test: in vitro antiproliferation assay, HELA (cervix/p53 wt)
Protocol: as §1, §2

U20S = test: in vitro antiproliferation assay, U20S (bone)
Protocol: as §1, §2

MDA MB231 = test: in vitro antiproliferation assay, MDA MB231 (breast/ER negative)
Protocol: as §1, §2

MCF-7 = test: in vitro antiproliferation assay, MCF-7 (breast/ER positive)
Protocol: as §1, §2

HUH7 = test: in vitro antiproliferation assay, HUH7 (liver/p53 wt)
Protocol: as §1, §2

[1] = H1299 (lung) cells, in vitro antiproliferation
[2] = HCT116 (colon), read-out: HCT116
[3] = A549 (lung) cells, in vitro antiproliferation
[4] = A549 (lung) cells, antiproliferation
[5] = H1299 (lung) cells, antiproliferation
[6] = IC50 class against H1299 (lung) tumor cells
[7] = IC50 class against A549 (lung) tumor cells

IC50 (SKMEL5): ≤ 20 µM
IC50 (H1299 cells; [1]): ≤ 20 µM
IC50 (ACHN): ≤ 20 µM
IC50 (CAKI): ≤ 20 µM
IC50 (SKMEL28): ≤ 20 µM
IC50 (HCT116; [2]): ≤ 20 µM
IC50 (A549 cells; [3]): ≤ 20 µM
SMILES: COc1cc(Nc2nc(Nc3cc(C)cc(C)c3)ncc2F)cc(OC)c1 [compound 846]
IC50 (HUVEC): ≤ 20 µM

IC50 (H1299 cells; [1]): ≤ 20 µM
IC50 (PC3): > 20 µM
IC50 (A549 cells; [3]): > 20 µM
SMILES: CCOC(=O)COc1cccc(Nc2ncc(F)c(Nc3cc(OC)cc(OC)c3)n2)c1 [compound 766]

IC50 (PC3): > 20 µM
IC50 (HCT116; [2]): ≤ 20 µM
IC50 (A549 cells; Table 5, in vitro antiproliferation, A549 (lung) cells): < 20 µM
SMILES: CNC(=O)COc1cccc(Nc2ncc(F)c(Nc3ccc4c(c3)OC(F)(F)C(F)(F)O4)n2)c1 [compound 503]

IC50 (H1299 cells; [5]): > 20 µM
IC50 (A549 cells; [4]): > 20 µM
SMILES: Cc1cc(C)cc(Nc2ncc(F)c(N(C)c3ccc(Cl)c(Cl)c3)n2)c1 [compound 1007]
IC50 (HUVEC): > 20 µM

IC50 (PC3): > 20 µM
IC50 (HCT116; [2]): ≤ 20 µM
IC50 (HCT116; Table 7, in vitro antiproliferation, colon cells, read-out: HTC116): ≤ 20 µM
IC50 (A549 cells; Table 7, in vitro antiproliferation, A549 (lung) cells): ≤ 20 µM
SMILES: O=C(c1cc2cc(Nc3ncc(F)c(Nc4ccc5c(c4)OCCO5)n3)ccc2o1)N1CCCNCC1 [compound 644]

IC50 (HELA): ≤ 20 µM
IC50 (H1299 cells; [6]): ≤ 20 µM
IC50 (HCT116; [2]): ≤ 20 µM
IC50 (A549 cells; [7]): ≤ 20 µM
SMILES: CN1CCN(c2ccc(Nc3ncc(F)c(N(C)C4CCC4)n3)cc2)CC1 [compound 125]
IC50 (MDA MB231; MDA-MB-231, seeding density 2K, read-out: MDA-MB-231(2K)): ≤ 20 µM
IC50 (MDA MB231; MDA-MB-231, seeding density 4K, read-out: MDA-MB-231(4K)): ≤ 20 µM
IC50 (MCF-7; MCF7, seeding density 2K, read-out: MCF7(2K)): ≤ 20 µM
IC50 (MCF-7; MCF7, seeding density 4K, read-out: MCF7(4K)): ≤ 20 µM

IC50 (SKMEL5): ≤ 20 µM
IC50 (H1299 cells; [1]): ≤ 20 µM
IC50 (ACHN): ≤ 20 µM
IC50 (CAKI): ≤ 20 µM
IC50 (SKMEL28): ≤ 20 µM
IC50 (HCT116; [2]): ≤ 20 µM
IC50 (A549 cells; [3]): ≤ 20 µM
SMILES: COc1ccc(N(C)c2nc(Nc3cccc(-c4ncco4)c3)ncc2F)cc1OC [compound 868]
IC50 (U20S): ≤ 20 µM

IC50 (H1299 cells; [5]): > 20 µM
IC50 (PC3): > 20 µM
IC50 (A549 cells; [4]): > 20 µM
SMILES: CCOC(=O)COc1cccc(Nc2ncc(F)c(Nc3cccc(C(C)(C)C)c3)n2)c1 [compound 958]

IC50 (HUH7): ≤ 20 µM
IC50 (PC3): ≤ 20 µM
IC50 (HCT116; [2]): > 20 µM
SMILES: CNC(=O)COc1cccc(Nc2ncc(F)c(Nc3ccc4c(c3)NC(=O)C(C)(C)O4)n2)c1 [compound 355]

IC50 (SKMEL5): ≤ 20 µM
IC50 (H1299 cells; [6]): ≤ 20 µM
IC50 (ACHN): ≤ 20 µM
IC50 (CAKI): ≤ 20 µM
IC50 (SKMEL28): ≤ 20 µM
IC50 (HCT116; [2]): ≤ 20 µM
IC50 (A549 cells; [7]): ≤ 20 µM
SMILES: CNC(=O)COc1cccc(Nc2ncc(F)c(NC3CC3)n2)c1 [compound 106]

More lines, now with the values behind:

SMILES: COc1ccc(N(C)c2nc(Nc3ccc(-c4ncco4)cc3)ncc2F)cc1OC [compound 869]
IC50 (SKMEL5): ≤ 20 µM
IC50 (H1299 cells; [1]): ≤ 20 µM
IC50 (ACHN): ≤ 20 µM
IC50 (SKMEL28): ≤ 20 µM
IC50 (A549 cells; [3]): ≤ 20 µM

SMILES: Cc1cc(Nc2nc(Nc3cccc(OCCN4CCNCC4)c3)ncc2F)cc(Cl)c1O [compound 984]
IC50 (PC3): ≤ 20 µM
IC50 (HCT116; [2]): ≤ 20 µM
IC50 (A549 cells; [4]): ≤ 20 µM

SMILES: Cc1cc(Nc2nc(Nc3cccc(OCC(=O)O)c3)ncc2F)cc(C)c1O [compound 979]
IC50 (H1299 cells; [5]): ≤ 20 µM
IC50 (PC3): > 20 µM
IC50 (A549 cells; [4]): > 20 µM

SMILES: COc1cc(Nc2nc(Nc3cccc(OCCO)c3)ncc2F)cc(OC)c1 [compound 940]
IC50 (H1299 cells; [5]): ≤ 20 µM
IC50 (PC3): ≤ 20 µM
IC50 (HCT116; [2]): ≤ 20 µM
IC50 (A549 cells; [4]): ≤ 20 µM

SMILES: O=C(COc1cccc(Nc2ncc(F)c(NC3CC3)n2)c1)NC1CCC1 [compound 103]
IC50 (SKMEL5): ≤ 20 µM
IC50 (H1299 cells; [6]): ≤ 20 µM
IC50 (ACHN): ≤ 20 µM
IC50 (CAKI): ≤ 20 µM
IC50 (SKMEL28): ≤ 20 µM
IC50 (HCT116; [2]): ≤ 20 µM
IC50 (A549 cells; [7]): ≤ 20 µM

SMILES: COc1cc(OC)cc(N(C)c2nc(Nc3cc(C)cc(C)c3)ncc2F)c1 [compound 851]
IC50 (HELA): ≤ 20 µM
IC50 (H1299 cells; [1]): ≤ 20 µM
IC50 (HCT116; [2]): ≤ 20 µM
IC50 (U20S): ≤ 20 µM
IC50 (A549 cells; [3]): ≤ 20 µM

SMILES: Cc1cc(Nc2nc(Nc3cccc(OCCN4CCOCC4)c3)ncc2F)cc(C)c1O [compound 949]
IC50 (H1299 cells; [5]): ≤ 20 µM
IC50 (PC3): ≤ 20 µM
IC50 (SKMEL28): ≤ 20 µM
IC50 (HCT116; [2]): ≤ 20 µM
IC50 (A549 cells; [4]): ≤ 20 µM

SMILES: COc1c(C)cc(Nc2ncc(F)c(Nc3ccc4c(c3)NC(=O)C(C)(C)O4)n2)cc1Cl [compound 359]
IC50 (HUH7): ≤ 20 µM
IC50 (HCT116; [2]): > 20 µM
